This note sets out measurements from paper PMC8062851, “2-Methoxyestradiol and its derivatives inhibit store-operated Ca^2+ entry in T cells: Identification of a new and potent inhibitor” (Biochimica et Biophysica Acta. Molecular Cell Research, 2021).

One assay has as its system SOCE in Jurkat T cells. Briefly: Inhibition during activated SOCE (thapsigargin or anti-CD3 OKT3, 1 mM extracellular Ca2+) in Jurkat T cells. In kind it is cell-based, human. To be noted: for IC50: Homo sapiens, Jurkat, 1 mM extracellular Ca2+. As to the method: Jurkat T-lymphocytes, primary human CD4^+ T cells and H1299 cells were pelleted at 450 ×g for 5 min, rat TMBP at 300 ×g for 8 min at room temperature and were resuspended in 1 ml of either standard JMP medium (Jurkat, H1299 and human CD4^+ T cells) or standard DMEM based medium containing 10% fetal bovine serum (FBS) (v/v) (TMBP cells). Resting TMBP cells (day 5–7 after re-stimulation) after the second to fifth re-stimulation were thawed from liquid nitrogen 12 to 40 h prior to Fura2-loading. After pre-incubation for 5 min at 37 °C, cells were incubated with 4 μM Fura2-AM for 15 min at 37 °C. After addition of the dye, cells were kept in the dark. Afterwards, cells and the dye were diluted by addition of 4 ml standard medium and incubated for another 15 min. Cells were washed twice in Ca^2+ buffer (140 mM NaCl, 5 mM KCl, 1 mM MgSO4, 1 mM CaCl2, 1 mM NaH2PO4, 20 mM HEPES, 5.5 mM glucose; pH 7.4 (NaOH), sterile filtered) and were diluted to a concentration of 2*10^6 cells/ml. Subsequently, cells were kept at room temperature for 20 min for de-esterification before the start of the first measurement.
10^6 Jurkat T-lymphocytes, H1299 cells, TMBP cells or 4*10^6 primary human CD4^+ T cells were added into a 10 × 10 mm quartz glass cuvette (Hellma Analytics, Germany) that was placed into a fluorescence spectrophotometer (F-2710, Hitachi, Japan). In experiments using a Ca^2+ free/Ca^2+ re-addition protocol, cells were pelleted as described for Fura2 loading and Ca^2+ buffer was exchanged by 1 ml nominal Ca^2+ free buffer (140 mM NaCl, 5 mM KCl, 1 mM MgSO4, 1 mM NaH2PO4, 20 mM HEPES, 5.5 mM glucose; pH 7.4 (NaOH), sterile filtered) immediately before starting the measurement. The measurement was controlled by FL Solutions (Version 4.1, Hitachi High-Technologies Corporation). Fura2 was alternatively excited every 2 s at 340 ± 5 nm and 380 ± 5 nm, each 400 ms apart. Fluorescence intensity was measured at an emission wavelength of 495 ± 5 nm for both excitation wavelengths.
Finally, every measurement was calibrated using 0.1% (v/v) Triton X-100 to obtain a maximal ratio and 4 mM EGTA and 30 mM Tris to obtain a minimal ratio. […]
Besides the Ca^2+ free/Ca^2+ re-addition protocol, we also characterized the effect of STX564 in cells during activated SOCE in the presence of thapsigargin (TG, Fig. 2A,B) or upon stimulation via their TCR/CD3 complex (Fig. 2C). […]. […] Similarly, in Fig. 2C this effect of a partial or full recovery of SOCE was also observed, a few minutes after STX564 addition.

The test system of the next assay is SOCE in H1299 cells. Briefly: SOCE inhibition, Ca2+ free/Ca2+ re-addition protocol in H1299 cells. Particulars: 10 μM. The format is cell-based, human. The procedure: Jurkat T-lymphocytes were cultured in RPMI 1640 medium containing 25 mM HEPES and GlutaMAX-1 (Gibco, Life Technologies), supplemented with 7.5% (v/v) newborn calf serum (NCS) (Biochrom, Merck Millipore), 100 U/ml penicillin and streptomycin (standard JMP medium). Cell density was kept between 0.3 and 1.2 ∗ 10^6 cells/ml. H1299 cells were cultured in DMEM (Dulbecco's modified Eagle's medium; Gibco, Life Technologies) supplemented with 10% (v/v) (FCS) (Biochrom, Merck Millipore), 4 mM L-glutamine, 100 μg/ml streptomycin, and 100 units/ml penicillin.
Jurkat T-lymphocytes, primary human CD4^+ T cells and H1299 cells were pelleted at 450 ×g for 5 min, rat TMBP at 300 ×g for 8 min at room temperature and were resuspended in 1 ml of either standard JMP medium (Jurkat, H1299 and human CD4^+ T cells) or standard DMEM based medium containing 10% fetal bovine serum (FBS) (v/v) (TMBP cells). […]
10^6 Jurkat T-lymphocytes, H1299 cells, TMBP cells or 4*10^6 primary human CD4^+ T cells were added into a 10 × 10 mm quartz glass cuvette (Hellma Analytics, Germany) that was placed into a fluorescence spectrophotometer (F-2710, Hitachi, Japan). […] Fluorescence intensity was measured at an emission wavelength of 495 ± 5 nm for both excitation wavelengths.

A further assay deals with T1, ORAI1 (Homo sapiens, UniProt Q96D31).
T1 construct: host or cells: Jurkat T-lymphocytes (electroporation)
T1 sequence (Q96D31 whole entry): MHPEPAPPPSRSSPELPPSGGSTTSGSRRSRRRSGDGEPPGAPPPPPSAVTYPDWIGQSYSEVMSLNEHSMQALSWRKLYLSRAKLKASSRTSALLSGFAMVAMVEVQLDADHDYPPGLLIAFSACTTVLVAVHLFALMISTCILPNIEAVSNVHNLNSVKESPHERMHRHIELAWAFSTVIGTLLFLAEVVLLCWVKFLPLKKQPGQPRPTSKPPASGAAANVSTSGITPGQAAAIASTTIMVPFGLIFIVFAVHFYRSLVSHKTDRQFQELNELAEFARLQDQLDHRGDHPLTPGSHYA
Briefly: Live cell Ca2+ imaging of G-GECO1.2-ORAI1 transfected Jurkat T cells. The format is cell-based. To be noted: 10 μM. As to the method: 12.5 ∗ 10^6 Jurkat T–lymphocytes were pelleted at 400 to 450 ×g for 5 min at room temperature and pellets were dissolved in 500 μl RPMI 1640 medium (Gibco) without phenol red containing L-glutamine, supplemented with 7.5% (v/v) NCS. 30 μg plasmid-DNA (G-GECO1.2-ORAI1) was transferred into a 4 mm electroporation cuvette (Biozym, Austria) and the Jurkat T-lymphocytes were added. G-GECO1.2-ORAI1 was a gift from Michael Cahalan, USA (Addgene plasmid # 73562). After an incubation of 5 min at 37 °C, cells were electroporated with 960 μF and 240 V (τ: […]). […]
17 to 22 h after electroporation, 5 ∗ 10^4 cells were pelleted at 400–450 ×g for 5 min at room temperature and cell pellets were dissolved in 50 μl nominal Ca^2+ free buffer. […] The fluorophore was excited at 488 nm every 2 s for 30 min and fluorescence was measured at 520 nm using Volocity (Version 6.3, Perkin Elmer).
Using ImageJ (Version 1.51 k, National Institutes of Health, USA) the pictures were analyzed for mean fluorescence in the outer ring of Jurkat T-lymphocytes employing ring-shaped regions of interest (ROIs). […] The mean background fluorescence values were subtracted from the signal in every image. For quantitative analysis, fluorescence intensities were normalized to the first fluorescence intensity (F/F0).

In another assay the test system is TMBP cells. Briefly: In vitro activation of TMBP cells by MBP, CD25 surface expression by flow cytometry. The format is cell-based, rat. The procedure: In vitro activation assays were performed in 96-well plates. […]. TMBP cell activation on mRNA level was determined using qPCR and on surface protein level using surface marker staining and subsequent flow cytometry analysis.
To assess in vitro T cell activation, surface staining for CD25 (OX39, Bio-Rad) was performed. APC-labelled goat anti-mouse antibody (Jackson ImmunoResearch) was used as secondary antibody. Mouse IgG1κ (MOPC 31C, Sigma-Aldrich) was used as control.
Cytofluorometric analysis was carried out with a CytoFLEX S (Beckman Coulter) operated by CytExpert software (Beckman Coulter). All procedures were performed at 4 °C. Data were analyzed by using FlowJo software (FlowJo, LLC).

Like-named read-outs stand apart in the source and are kept apart here.

`CCc1cc2c(cc1OS(N)(=O)=O)CC[C@@H]1[C@@H]2CC[C@]2(C)[C@@H](CC#N)CC[C@@H]12` [STX564, 2-ethyl-3-sulfamoyloxy-17β-cyanomethylestra-1,3,5(10)-triene]: the IC50 came out at 3000 nM with SOCE in Jurkat T cells (read-out: IC50 of SOCE inhibition during active SOCE, Jurkat T cells stimulated by 1 μM thapsigargin (TG)) and 2000 nM in the assay on SOCE in Jurkat T cells (read-out: IC50 of SOCE inhibition during active SOCE, Jurkat T cells stimulated by 1 μg/ml αCD3 (OKT3)). In addition, the “extent of inhibition when added during activated SOCE” value in the assay on SOCE in Jurkat T cells (Jurkat T cells, TG or TCR/CD3 stimulation) is “only partial inhibition”. Besides, the SOCE inhibition result in the assay with SOCE in H1299 cells is listed as “significantly inhibited”. For the same molecule, the “SOCE by ORAI1 (G-GECO1.2-ORAI1 fluorescence)” value at ORAI1 is “almost completely diminished”. Moreover, in the assay with TMBP cells, the “concentration at which up-regulation of CD25 was significantly reduced” value is not below 0.1 µM.
